Measured values reported in US20050065195A1, “Oxadiazolyl-biphenylcarboxamides and their use as p38 kinase inhibitors” (priority 2001, published 2005).

First: COc1ccc(C(=O)Nc2ccc(-c3ccc(C(C)=O)cc3)c(C)c2)cc1CCCN(C)C.Cl
Second: COc1ccc(C(=O)Nc2ccc(-c3ccc(C(C)=O)cc3)cc2)cc1CCN(C)C [1(b), N-(4′-Acetyl[1,1′-biphenyl]-4-yl)-3-[2-(dimethylamino)ethyl]-4-methoxybenzamide]
The melting point of the first is higher: 264 to 266 °C for the first, 236 to 240 °C for the second.

First: COc1ccc(C(=O)Nc2ccc(-c3ccccc3C(C)O)cc2)cc1CCCN(C)C.Cl (stereo not shown)
Second: CCc1ccc(-c2ccc(NC(=O)c3ccc(OC)c(CCCN(C)C)c3)cc2)cc1 [Example 6, 3-[3-(Dimethylamino)propyl]-N-(4′-ethyl[1,1′-biphenyl]-4-yl)-4-methoxybenzamide]
The melting point of the first is higher: 224 to 227 °C for the first, 200 to 202 °C for the second.

First: COc1ccc(C(=O)Nc2ccc(-c3ccc(CO)c(O)c3)cc2)cc1CCCN(C)C [Example 20(b), 3-[3-(Dimethylamino)propyl]-N-[3′-hydroxy-4′-(hydroxymethyl)[1,1′-biphenyl]-4-yl]-4-methoxybenzamide]
Second: COc1ccc(C(=O)Nc2ccc(-c3ccc(-c4nc(C)no4)cc3C)cc2)cc1CCCN(C)C [Example 71, 3-[3-(Dimethylamino)propyl]-4-methoxy-N-[2′-methyl-4′-(3-methyl-1,2,4-oxadiazol-5-yl)[1,1′-biphenyl]-4-yl]benzamide]
The melting point of the first is higher: 171 to 173 °C for the first, 166 to 167 °C for the second.

Work on COc1ccc(C(=O)Nc2ccc(-c3ccc(CO)cc3C)c(C)c2)cc1CCCN(C)C [Example 41, 3-[3-(Dimethylamino)propyl]-N-[4′-(hydroxymethyl)-2,2′-dimethyl[1,1′-biphenyl]-4-yl]-4-methoxybenzamide] yielded a melting point of 68 to 70 °C.
